Here are results for two compounds from US8455688B2, “HDAC inhibitors” (Lixte Biotechnology, Inc., priority 2007, dated 2013).

Entries after “also recorded” stand apart in the source; their conditions may differ.

One series relates to normal mouse brain cells. The series is described as follows: Viability of normal mouse brain cells.
A further series relates to NCI-H522 Lung adenoca. The series is described as follows: CellTiter-Glo proliferation assay, NCI-H522. Particulars: Homo sapiens, 72 hr incubation, read-out: IC50 (50% inhibition of proliferation). Type of series: cell-based. The text has this: (§1) MDA-MB-231, HT-29, NCI-H460, NCI-H522, NCI-H69, GXF-209, HepG2, OVAR-3, PANC-1, DU-145, LNCAP, HL-60, K-562, and MOLT-4 cell lines were either obtained from the American Type Culture Collection (ATCC; Manassas, Va.), or from the National Cancer Institute (NCl; Frederick, Md.). RPM-1640 media, L-glutamine dipeptide (HyQ SG-200), and HEPES were obtained from Hyclone (Logan, Utah). Fetal bovine serum (FBS) was obtained from Sigma-Aldrich, (St. Louis, Mo.). DMSO was purchases from Fisher Chemicals (Fair Lawn, N.J.). The CellTiter-Glo Luminescent Cell Viability Assay reagent was obtained from Promega Corporation (Madison, Wis.). All tissue culture plasticware was obtained from Corning Incorporated (New York, N.Y.). Compound 100 and Compound 102 were provided by Lixte Biotechnology Holdings, Inc. (East Setauket, N.Y.). All cell lines were routinely cultured twice weekly in RPMI-1640 medium supplemented with 2 mM L-glutamine dipeptide, 10 mM HEPES, and 10% FBS. The adherent cell lines MDA-MB-231, HT-29, NCI-H460, NCI-H522, GXF-209, HepG2, OVAR-3, PANC-1, DU-145, and LNCAP cells were each seeded into two 96-well plates at 2,500 cells per well in a total volume of 50 uL and incubated in a 37 C humidified 5% CO2 cell culture incubator overnight. […] Luminescence was then recorded using the PerkinElmer Microbeta scintillation and luminescence counter (Trilux).

The next series deals with HepG2 Hepatoma. The series is described as follows: CellTiter-Glo proliferation assay, HepG2. Type of series: cell-based. Particulars: Homo sapiens, 72 hr incubation, read-out: IC50 (50% inhibition of proliferation).
From the text: as §1
In general terms: ATP-based viability assays read luminescence as a measure of living cells.

A further series deals with HT-29 Colon. Briefly: CellTiter-Glo proliferation assay, HT-29. Type of series: cell-based. Particulars: Homo sapiens, 72 hr incubation, read-out: IC50 (50% inhibition of proliferation).
From the text: as §1

For another series, the system named is NCI-H460 Lung large cell. Briefly: CellTiter-Glo proliferation assay, NCI-H460. It counts as cell-based. Particulars: Homo sapiens, 72 hr incubation, read-out: IC50 (50% inhibition of proliferation).
From the text: as §1

Series [1] has as its system MOLT-4 Leukemia acute lympho. Briefly: CellTiter-Glo proliferation assay, MOLT-4. It counts as cell-based. Particulars: Homo sapiens, 72 hr incubation, read-out: IC50 (50% inhibition of proliferation).
From the text: as §1

Series [2] relates to medulloblastoma cell line DAOY. Briefly: Inhibition of growth of medulloblastoma cell line DAOY. It counts as cell-based.
Series [3] has as its system HL-60 Leukemia promyelocytic. The series is described as follows: CellTiter-Glo proliferation assay, HL-60. It counts as cell-based. Particulars: Homo sapiens, 72 hr incubation, estimated from the data, no curve fit possible, read-out: IC50 (50% inhibition of proliferation).
From the text: as §1

In another series the test system is MDA-MB-231 Breast. The series is described as follows: CellTiter-Glo proliferation assay, MDA-MB-231. It counts as cell-based. Particulars: Homo sapiens, 72 hr incubation, read-out: IC50 (50% inhibition of proliferation).
From the text: as §1

The subject of a further series is PANC-1 Pancreas. The series is described as follows: CellTiter-Glo proliferation assay, PANC-1. It counts as cell-based. Particulars: Homo sapiens, 72 hr incubation, read-out: IC50 (50% inhibition of proliferation).
From the text: as §1

The subject of the next series is OVCAR-3 Ovary adenoca. The series is described as follows: CellTiter-Glo proliferation assay, OVCAR-3. Particulars: Homo sapiens, 72 hr incubation, read-out: IC50 (50% inhibition of proliferation). Type of series: cell-based.
From the text: as §1

Another series concerns SHSY-5Y xenografts. Briefly: Inhibition of SHSY-5Y xenografts. Particulars: in vivo.
The next series relates to DU-145 Prostate. The series is described as follows: CellTiter-Glo proliferation assay, DU-145. It counts as cell-based. Particulars: Homo sapiens, 72 hr incubation, read-out: IC50 (50% inhibition of proliferation).
From the text: as §1

The test system of the next series is LNCAP Prostate. The series is described as follows: CellTiter-Glo proliferation assay, LNCAP. It counts as cell-based. Particulars: Homo sapiens, 72 hr incubation, read-out: IC50 (50% inhibition of proliferation).
From the text: as §1

The next series concerns human cancer cell lines. The series is described as follows: Proliferation of multiple human cancer cell lines (panel summary). Particulars: panel of Table 2. Type of series: cell-based.
From the text: as §1

For a further series, the system named is GXF-209 Stomach. The series is described as follows: CellTiter-Glo proliferation assay, GXF-209. Particulars: Homo sapiens, 72 hr incubation, read-out: IC50 (50% inhibition of proliferation). Type of series: cell-based.
From the text: as §1

Series [4] relates to K562 Leukemia chronic myelo. Briefly: CellTiter-Glo proliferation assay, K562. Particulars: Homo sapiens, 72 hr incubation, read-out: IC50 (50% inhibition of proliferation). It counts as cell-based.
From the text: as §1

The subject of a further series is NCI-H69 Lung small cell. Briefly: CellTiter-Glo proliferation assay, NCI-H69. It counts as cell-based. Particulars: Homo sapiens, 72 hr incubation, read-out: IC50 (50% inhibition of proliferation).
From the text: as §1

Turning to `O=C(CCCCCNC(=O)c1ccccc1S)Nc1cccnc1` [Compound 205, 2-Mercapto-N-[5-(pyridin-3-ylcarbamoyl)pentyl]benzamide], the “viability of normal mouse brain cells compared to control” value in the series with normal mouse brain cells is on record as “high viability”. Also, the IC50 in the series on NCI-H522 Lung adenoca was 1.8 µM; in the series on HepG2 Hepatoma it was 53.1 µM; in the series on HT-29 Colon, 47.6 µM; with NCI-H460 Lung large cell it was over 100 µM; in [1] it was 26.3 µM; in series [3], about 60 µM. The IC50 was found to be 24.8 µM with MDA-MB-231 Breast; 11.9 µM in the series with PANC-1 Pancreas; 18.7 µM in the series on OVCAR-3 Ovary adenoca; 50.2 µM in the series on DU-145 Prostate; 6.2 µM in the series on LNCAP Prostate; 22 µM with GXF-209 Stomach. The IC50 in series [4] was 58.3 µM; in the series with NCI-H69 Lung small cell it was 16.1 µM. The “activity against medulloblastoma cell line DAOY” value in [2] is “active”. Moreover, the “activity against the growth of SHSY-5Y xenografts” value in the series with SHSY-5Y xenografts is on record as “shows activity”. Besides, the “activity against human cancer cell lines” value with human cancer cell lines is “low uM range; also recorded: active against multiple human cancer cell lines at low micromolar concentrations”. In addition, in the series on human cancer cell lines, the “cancer types against which most active” value is “most active against lung adenocarcinoma, stomach cancer, pancreatic cancer, and breast cancer”.

In general, melting point refers to the temperature, or range, at which the solid turns liquid. Regarding `CN(C)c1ccc(NC(=O)CCCCCNC(=O)c2ccccc2S)cc1` [Compound 206, 2-Mercapto-N-[5-(4-dimethylamino-3-yl-carbamoyl)pentyl]benzamide], the melting point is 108 to 110 °C.
